Experiments:
[1] = target: T1, SIRT1(183-664) (Homo sapiens, UniProt Q96EB6); test: ITC binding of STACs to SIRT1(183-664); conditions: dissociation constant of SRT:SIRT1 complex, read-out: Kx (μM), ITC
T1 construct: the truncated version used for biophysical studies SIRT1(183-664); made in house
T1 sequence (Q96EB6 183-664): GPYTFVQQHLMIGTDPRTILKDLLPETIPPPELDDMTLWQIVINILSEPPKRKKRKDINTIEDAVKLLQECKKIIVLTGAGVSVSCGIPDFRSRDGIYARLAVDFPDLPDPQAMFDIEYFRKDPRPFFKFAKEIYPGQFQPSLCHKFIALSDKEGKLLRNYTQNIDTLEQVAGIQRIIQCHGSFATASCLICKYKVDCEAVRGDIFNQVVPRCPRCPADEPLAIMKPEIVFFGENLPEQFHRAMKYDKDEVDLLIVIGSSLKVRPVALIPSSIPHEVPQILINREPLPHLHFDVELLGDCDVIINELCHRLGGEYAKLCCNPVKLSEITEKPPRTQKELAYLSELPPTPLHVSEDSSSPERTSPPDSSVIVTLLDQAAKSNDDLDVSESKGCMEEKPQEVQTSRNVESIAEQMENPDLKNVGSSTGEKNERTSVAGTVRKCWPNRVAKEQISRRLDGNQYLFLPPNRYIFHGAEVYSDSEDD
Description: All peptides were prepared by BioPeptide (San Diego, Calif.) and shown to be at least 95% pure by analytical HPLC analysis. Bovine glutamate dehydrogenase (GDH), α-ketoglutarate, NADH and NAD^+ were from Sigma Chemical Company. Full-length, human SIRT1 and the truncated version used for biophysical studies SIRT1(183-664) were prepared as described previously, and shown to have equivalent kinetic properties (Milne et al. (2007) Nature 450, 712-716). The nicotinamidase PNC1 was prepared as described by Denu and colleagues (Smith et al. (2009) Anal Biochem 394, 101-109). ITC experiments were performed using either a VP-ITC system or iTC200 system (MicroCal) at 26° C. in a buffer composed of 137 mM NaCl, 2.7 mM KCl, 1 mM MgCl2, 2 mM TCEP, 5% (v/v) glycerol and 50 mM HEPES-NaOH, pH 7.3. SIRT1(183-664) was purified and dialyzed against the buffer, centrifuged, and degassed before the experiment. The peptide and compounds were dissolved in the final dialysis buffer and their pH values were adjusted to match that of the protein solution. […] To characterize this interaction using the iTC200 system, 1 mM TAMRA-peptide was injected in 20 aliquots of 2 μL, (except the first injection, which was 0.5 μL) into a 0.202 mL sample cell containing 100 μM STAC. For STACs with poor solubility, the concentrations were adjusted accordingly. […] To characterize the interaction of a STAC with SIRT1(183-664) on the VP-ITC system, 100 μM enzyme was injected in 35 aliquots of 8 μL, (except the first injection, which was 2 μL) into a 1.47 mL sample cell containing 10 μM STAC. […] In all cases, data was corrected for the heat of dilution and fitted using a nonlinear least-squares routine using a single-site binding model with Origin for ITC v7.0383 (Microcal) with the stoichiometry (n), the enthalpy of the reaction (ΔH) and the association constant (Ka) calculated.

[2] = target: T2, SIRT1 (Homo sapiens, UniProt Q96EB6); test: Mass spectrometry based SIRT1 activation assay (TAMRA/5TMR-labeled 20mer peptide); format: biochemical
T2 sequence (Q96EB6 1-747): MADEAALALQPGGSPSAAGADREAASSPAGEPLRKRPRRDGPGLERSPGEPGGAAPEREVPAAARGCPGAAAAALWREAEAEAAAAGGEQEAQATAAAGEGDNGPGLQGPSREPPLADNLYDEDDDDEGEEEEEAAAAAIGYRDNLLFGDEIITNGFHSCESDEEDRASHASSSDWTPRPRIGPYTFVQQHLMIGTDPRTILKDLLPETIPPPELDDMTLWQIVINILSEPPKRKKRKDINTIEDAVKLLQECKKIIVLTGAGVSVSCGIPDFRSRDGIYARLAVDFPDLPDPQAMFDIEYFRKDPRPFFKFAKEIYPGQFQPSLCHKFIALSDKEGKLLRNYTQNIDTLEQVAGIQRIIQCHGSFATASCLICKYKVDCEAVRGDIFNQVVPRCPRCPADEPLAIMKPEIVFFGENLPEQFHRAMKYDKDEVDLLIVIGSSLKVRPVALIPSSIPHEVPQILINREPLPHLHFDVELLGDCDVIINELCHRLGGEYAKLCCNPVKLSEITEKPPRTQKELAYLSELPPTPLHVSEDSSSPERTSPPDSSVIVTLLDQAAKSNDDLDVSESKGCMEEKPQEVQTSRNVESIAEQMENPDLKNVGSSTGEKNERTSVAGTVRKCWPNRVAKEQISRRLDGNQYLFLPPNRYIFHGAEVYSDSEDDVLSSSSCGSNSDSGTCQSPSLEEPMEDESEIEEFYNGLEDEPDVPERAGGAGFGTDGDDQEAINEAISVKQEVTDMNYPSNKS
From the text: A mass spectrometry based assay was used to identify modulators of SIRTI activity. The mass spectrometry based assay utilizes a peptide having 20 amino acid residues as follows: Ac-EE-K(biotin)-GQSTSSHSK(Ac)NleSTEG-K(5TMR)-EE-NH2 (SEQ ID NO: 1) wherein K(Ac) is an acetylated lysine residue and Nle is a norleucine. The peptide is labeled with the fluorophore 5TMR (excitation 540 nrnIemission 580 nm) at the C-terminus. The sequence of the peptide substrate is based on p53 with several modifications. In addition, the methionine residue naturally present in the sequence was replaced with the norleucine because the methionine may be susceptible to oxidation during synthesis and purification.
The mass spectrometry assay is conducted as follows: 0.5 J-1M peptide substrate and 120 μM βNAD^+ is incubated with 10 nM SIRT1 for 25 minutes at 25° C. in a reaction buffer (50 mM Tris-acetate pH 8, 137 mM NaCl, 2.7 mM KCl, 1 mM MgClz, 5 mM DTT, 0.05% BSA). Test compounds may be added to the reaction as described above. The SirTI gene is cloned into a T7-promoter containing vector and transformed into BL21 (DE3). After the 25 minute incubation with SIRT1, 10 μL of 10% formic acid is added to stop the reaction. Reactions are sealed and frozen for later mass spec analysis. Determination of the mass of the substrate peptide allows for precise determination of the degree of acetylation (i.e. starting material) as compared to deacetylated peptide (product).
A control for inhibition of sirtuin activity is conducted by adding 1 μL of 500 mM nicotinamide as a negative control at the start of the reaction (e.g., permits determination of maximum sirtuin inhibition). A control for activation of sirtuin activity is conducted using 10 nM of sirtuin protein, with 1 μL of DMSO in place of compound, to determine the amount of deacetylation of the substrate at a given timepoint within the linear range of the assay. This timepoint is the same as that used for test compounds and, within the linear range, the endpoint represents a change in velocity.
For the above assay, SIRTI protein was expressed and purified as follows. The SirT1 gene was cloned into a T7-promoter containing vector and transformed into BL21(DE3). The protein was expressed by induction with 1 mM IPTG as an N-terminal His-tag fusion protein at 18° C. overnight and harvested at 30,000×g. Cells were lysed with lysozyme in lysis buffer (50 mM Tris-HCl, 2 mM Tris[2-carboxyethyl]phosphine (TCEP), 10 μM ZnCl2, 200 mM NaCl) and further treated with sonication for 10 min for complete lysis. The protein was purified over a Ni-NTA column (Amersham) and fractions containing pure protein were pooled, concentrated and run over a sizing column (Sephadex S200 26/60 global). The peak containing soluble protein was collected and run on an Ion-exchange column (MonoQ). Gradient elution (200 mM-500 mM NaCl) yielded pure 20 protein. This protein was concentrated and dialyzed against dialysis buffer (20 mM TrisHCl, 2 mM TCEP) overnight. The protein was aliquoted and frozen at −80° C. until further use.
Sirtuin modulating compounds that activated SIRT1 were identified using the assay described above and are shown below in Table 4. The EC1.5 values represent the concentration of test compounds that result in 150% activation of SIRT1. The EC1.5 values for the activating compounds are represented by A (EC1.5≦1 μM), B (EC1.5>1 μM). The percent maximum fold activation is represented by A (Fold activation ≧200%) or B (Fold Activation <200%).

[3] = target: T2, SIRT1; test: Steady-state kinetic parameters for SIRT1 substrates (PNC1-GDH-coupled assay); format: biochemical; design: kc/K1: unit not given here; conditions: 25° C., pH 7.5, [NAD+]o = 2 mM, [SIRT1]o 50-1,000 nM
Description: All peptides were prepared by BioPeptide (San Diego, Calif.) and shown to be at least 95% pure by analytical HPLC analysis. Bovine glutamate dehydrogenase (GDH), α-ketoglutarate, NADH and NAD^+ were from Sigma Chemical Company. Full-length, human SIRT1 and the truncated version used for biophysical studies SIRT1(183-664) were prepared as described previously, and shown to have equivalent kinetic properties (Milne et al. (2007) Nature 450, 712-716). The nicotinamidase PNC1 was prepared as described by Denu and colleagues (Smith et al. (2009) Anal Biochem 394, 101-109).
To determine the interaction of STACs with SIRT1 two kinetic methods were employed. One, which was used for TAMRA-peptide, desTAMRA-peptide, des(biotin,TAMRA)-peptide, and p53-20 mer, used a previously described mass spectroscopic method for detection of peptide reaction products (Milne et al. (2007) Nature 450, 712-716). The other, used with peptides of general structure Ac-Arg-His-Lys-Lys^Ac-X, used a continuous, enzyme-coupled method reported previously (Smith et al. (2009) Anal Biochem 394, 101-109), in which the SRT1 product nicotinamide is first converted into nicotinic acid and ammonia by the action of PNC1, and the ammonia then used by GDH to convert α-ketoglutarate into glutamate. This reaction occurs with oxidation of NADH to NAD^+ which is accompanied by a change in absorbance at 340 nm (Δε340=−6,200 M^−1 cm^−1).
The kinetic experiments used to characterize activators were run on a Perkin Elmer Lambda 25 spectrophotometer equipped with a water-jacketed, eight-cell changer maintained at 25° C. In a typical kinetic experiment, all components of the reaction solution except SIRT1 were added to a 1 mL cuvette and allowed to reach thermal equilibrium. Final concentrations of the coupling system components were: 1 μM PNC1, 0.23 mM NADH, 3.4 mM α-ketoglutarate, and 20 U/mL bovine GDH. This solution also contained peptide substrate, NAD^.0., and activator, at concentrations indicated in the text. The final DMSO concentration was kept constant at 1%, and the buffer used in these experiments was 50 mM HEPES, 150 mM NaCl, pH 7.5. While the system was reaching thermal equilibrium, the absorbance was monitored to provide an accurate estimate of the background rate, which was subtracted from the reaction rate after the addition of SIRT1.
The parameters reported in this table were all determined using the PNC1-GDH-coupled assay. Kinetic parameters for the four 20 mers were also estimated using the mass spectroscopy-based assay first described by Milne et al. ((2007) Nature 450, 712-716) and agree with those reported in Table 3.

| Compound | Kd [1] [µM] | Emax ([2]; 25 min, percent maximum fold activation of SIRT1, read-out: % FOLD ACT.) [%] | EC1.5 uM ([2]; concentration that results in 150% activation of SIRT1) | Km [3] [µM] | kc [3] [s⁻¹] | kc/K1 [3] |
| --- | --- | --- | --- | --- | --- | --- |
| CCCNc1cc(-c2nc3c(NC(=O)c4ccc(CN5CCNCC5)cc4)cccc3[nH]2)ccn1 [Compound 13] | 0.32 | ≥ 200 | A (EC1.5≦1 μM) | – | – | – |
| Ac-EEK^(biotin)GQSTSSHSK^AcNle-STEGK^(5-TMR)EE-NH2 [TAMRA-peptide] | – | – | – | 8.3 | 0.036 | 4.3 |
| EEKGQSTSSHK^AcJSTEGKEE [des(Biotin,TAMRA)-peptide] | – | – | – | 40 | 0.044 | 1.1 |
| SKKGQSTSRHKK^AcLJKTEGP [p53-20mer] | – | – | – | 8.5 | 0.36 | 42 |

Further lines, with some results ahead:

| Kd [1] [µM] | Emax ([2]; 25 min, percent maximum fold activation of SIRT1, read-out: % FOLD ACT.) [%] | EC1.5 uM ([2]; concentration that results in 150% activation of SIRT1) | Compound | Km [3] [µM] | kc [3] [s⁻¹] | kc/K1 [3] |
| --- | --- | --- | --- | --- | --- | --- |
| 0.43 | – | – | CCCNc1cc(-c2nc3c(NC(=O)c4ccc(CN5CCNCC5)cc4)cccc3[nH]2)ccn1 [drawing 20] | – | – | – |
| 0.32 | – | – | CN(C)CCCNc1cc(-c2nc3c(NC(=O)c4ccc(CN5CCNCC5)cc4)cccc3[nH]2)ccn1 [drawing 21] | – | – | – |

Source: patent US20130102009A1, “SIRTUIN ACTIVATORS AND ACTIVATION ASSAYS” (priority 2010, published 2013)
